From the RepoRT retention time repository (doi:10.1016/j.chroma.2012.12.030)

Test: RP, Waters ACQUITY UPLC BEH C18, 100 × 2.1 mm, 1.7 µm, 60 °C, 0.3 mL/min, estimated dead time 0.73 min; A: water + 0.01% formic acid; B: methanol + 0.01% formic acid; gradient (min/%B) 0/10 14/90 16/90
Details: stereoisomer not certain

SMILES | LC retention time [min]
COc1cc2c(c3oc(=O)c4c(c13)CCOC4=O)C1C=COC1O2 (stereo unspecified) | 6.35
CNC(C)Cc1ccc2c(c1)OCO2 (stereo unspecified) | 3.02
CNC(=O)CSP(=S)(OC)OC | 4.63
NC(=O)N1c2ccccc2C=Cc2ccccc21 | 8.1
CCOP(=S)(OCC)Oc1ccc(=O)n(-c2ccccc2)n1 | 10.7
COc1cc2c(c3oc(=O)c4c(c13)CCOC4=O)C1CCOC1O2 (stereo unspecified) | 5.93
COc1nn(CSP(=S)(OC)OC)c(=O)s1 | 9.06
CC(=O)Nc1ccc(O)cc1 | 2.05
CN1C2CCC1C(C(=O)O)C(OC(=O)c1ccccc1)C2 (stereo unspecified) | 4.08
CC1CCCC(=O)CCCC=Cc2cc(O)cc(O)c2C(=O)O1 (stereo unspecified) | 10.3
CCNc1nc(NC(C)(C)C)nc(SC)n1 | 10.6
CC(N)Cc1ccccc1 (stereo unspecified) | 2.8
CC(N)Cc1ccc2c(c1)OCO2 (stereo unspecified) | 2.97
CCNc1nc(NC(C)C)[nH]c(=O)n1 | 3.93
COc1cc2c(c3oc(=O)c4c(c13)CCC4=O)C1C=COC1O2 (stereo unspecified) | 7.15
O=C(O)c1ccccc1O | 4.8
c1ccc2[nH]c(-c3cscn3)nc2c1 | 4.8
CCCCC(C)C(OC(=O)CC(CC(=O)O)C(=O)O)C(CC(C)CCCCCCC(O)CC(O)C(C)N)OC(=O)CC(CC(=O)O)C(=O)O (stereo unspecified) | 11
CCCCCc1cc(O)c2c(c1)OC(C)(C)C1CCC(C(=O)O)=CC21 (stereo unspecified) | 13.9
CCSC(=O)N1CCCCCC1 | 10.4

SMILES | LC retention time [min]
COP(=S)(OC)SCn1nnc2ccccc2c1=O | 11.5
CNC(=O)Oc1cccc2c1OC(C)(C)C2 | 7.48
CCNc1nc(NCC)[nH]c(=O)n1 | 2.83
Cc1cc(C)nc(NS(=O)(=O)c2ccc(N)cc2)n1 | 3.59
CCCCC(C)C(OC(=O)CC(CC(=O)O)C(=O)O)C(CC(C)CC(O)CCCCC(O)CC(O)C(C)N)OC(=O)CC(CC(=O)O)C(=O)O (stereo unspecified) | 9.48
CNC(C)Cc1ccccc1 (stereo unspecified) | 3.05
COC=C(C(=O)OC)c1ccccc1Oc1cc(Oc2ccccc2C#N)ncn1 | 10
COCC(=O)N(c1c(C)cccc1C)C(C)C(=O)OC (stereo unspecified) | 9.09
CCNC(C)Cc1ccc2c(c1)OCO2 (stereo unspecified) | 3.48
O=C(OC1CC2CCC([NH2+]2)C1C(=O)[O-])c1ccccc1 (stereo unspecified) | 4.3
CC(=O)OCC12CC(OC(=O)CC(C)C)C(C)=CC1OC1C(O)C(OC(C)=O)C2(C)C12CO2 (stereo unspecified) | 10
CNC(=O)ON=C(C)SC | 3.09
COc1cc2c(c3oc(=O)c4c(c13)CCC4=O)C1(O)C=COC1O2 (stereo unspecified) | 6.04
CCn1cc(C(=O)O)c(=O)c2cc3c(cc21)OCO3 | 5.67
CCOC(=O)CC(SP(=S)(OC)OC)C(=O)OCC (stereo unspecified) | 11
COc1cc2c(c3oc(=O)c4c(c13)CCC4=O)C1CCOC1O2 (stereo unspecified) | 6.76
COC(=O)C1C2CCC(CC1OC(=O)c1ccccc1)N2 (stereo unspecified) | 5.14
CC(C)N1C(=O)N(c2ccccc2)CSC1=NC(C)(C)C | 13.1
CC1=CC2OC3C(O)CC(C)(C34CO4)C2(CO)C(O)C1=O (stereo unspecified) | 2.83
COC(=O)C1C(OC(=O)c2ccccc2)CC2CCC1N2C (stereo unspecified) | 4.66

SMILES | LC retention time [min]
Cc1cc(NS(=O)(=O)c2ccc(N)cc2)no1 | 3.91
Cc1nnc(N=S(=O)(O)c2ccc(N)cc2)s1 | 3.19
CNC(C)C(=O)c1ccccc1 (stereo unspecified) | 2.26
CC(C)c1ccc(NC(=O)N(C)C)cc1 | 8.83
Cc1cc(C2CC2)nc(Nc2ccccc2)n1 | 11.4
CC(=O)OCC12CC(OC(=O)CC(C)C)C(C)=CC1OC1C(O)C(O)C2(C)C12CO2 (stereo unspecified) | 9.07
CCOP(=S)(OCC)Oc1cc(C)nc(C(C)C)n1 | 11.9
Nc1ccc(S(=O)(=O)Nc2ncccn2)cc1 | 2.09
CCN(CC)c1nc(C)cc(OP(=S)(OC)OC)n1 | 12
COC(=O)Nc1nc2ccccc2[nH]1 | 3.89
CC(C)N1C(=O)c2ccccc2NS1(=O)=O | 6.66
CNC(=O)Oc1cccc2ccccc12 | 7.81
COc1ccc(C(CN(C)C)C2(O)CCCCC2)cc1 (stereo unspecified) | 6.34
CC(COc1ccc(Oc2ccccc2)cc1)Oc1ccccn1 (stereo unspecified) | 13.4
CCOC(=O)C1C(OC(=O)c2ccccc2)CC2CCC1N2C (stereo unspecified) | 5.78
CNC(=O)Oc1cc(C)c(SC)c(C)c1 | 9.95
Cc1c(N)c(=O)n(-c2ccccc2)n1C | 3.48
CC(C(=O)O)c1cccc(C(=O)c2ccccc2)c1 (stereo unspecified) | 9.5
Cc1nc(N(C)C)nc(OC(=O)N(C)C)c1C | 7.79

Further lines, results first:

LC retention time [min] | SMILES
10.3 | CCCCOC(=O)c1ccc(O)cc1
6.96 | CC12CCC3c4ccc(O)cc4CCC3C1CC(O)C2O (stereo unspecified)
6.2 | CCC1OC(=O)C(C)C(OC2CC(C)(OC)C(O)C(C)O2)C(C)C(OC2OC(C)CC(N(C)C)C2O)C(C)(O)CC(C)CN(C)C(C)C(O)C1(C)O (stereo unspecified)
9.27 | CCC(C)C(=O)OC1CC(O)C=C2C=CC(C)C(CCC(O)CC(O)CC(=O)O)C21 (stereo unspecified)
10.4 | CC12CCC3c4ccc(OS(=O)(=O)O)cc4CCC3C1CCC2O (stereo unspecified)
6.4 | O=C(c1ccc(O)cc1O)c1ccc(O)cc1O
14.2 | CCC(C)(C)C(=O)OC1CC(C)C=C2C=CC(C)C(CCC3CC(O)CC(=O)O3)C21 (stereo unspecified)
2.64 | O=C1OC(CN2CCOCC2)CN1N=Cc1ccc([N+](=O)[O-])o1 (stereo unspecified)
3.13 | CCCC1CC(C(=O)NC(C(C)O)C2OC(SC)C(O)C(O)C2O)N(C)C1 (stereo unspecified)
5.25 | CCNc1nc(NC(C)(C)C)[nH]c(=O)n1
10.1 | C#CC1(O)CCC2C3CCc4cc(O)ccc4C3CCC21C (stereo unspecified)
7.08 | CC1(C)SC2C(NC(=O)Cc3ccccc3)C(=O)N2C1C(=O)O (stereo unspecified)
8.19 | Cc1onc(-c2ccccc2)c1C(=O)NC1C(=O)N2C1SC(C)(C)C2C(=O)O (stereo unspecified)
2.7 | CCn1cc(C(=O)O)c(=O)c2cnc(N3CCNCC3)nc21
9.07 | CCNc1nc(NC(C)(C)C)nc(OC)n1
10.3 | CCCCC1=NC2(CCCC2)C(=O)N1Cc1ccc(-c2ccccc2-c2nn[nH]n2)cc1
10.6 | CCCCC(=O)N(Cc1ccc(-c2ccccc2-c2nn[nH]n2)cc1)C(C(=O)O)C(C)C (stereo unspecified)
11.7 | CC(=O)OC1(C(C)=O)CCC2C3CC(C)C4=CC(=O)CCC4(C)C3CCC21C (stereo unspecified)
11.8 | CC(C)Cc1ccc(C(C)C(=O)O)cc1 (stereo unspecified)
11.8 | C=C1CC2C3C=C(C)C4=CC(=O)CCC4(C)C3CCC2(C)C1(OC(C)=O)C(C)=O (stereo unspecified)
12.8 | Cc1ccc(C)c(OCCCC(C)(C)C(=O)O)c1

LC retention time [min] | SMILES
6.4 | COc1cc(O)c(C(=O)c2ccccc2)cc1S(=O)(=O)O
6.25 | COc1nc(N)nc(NC(C)(C)C)n1
9.78 | CCC1OC(=O)C(C)C(OC2CC(C)(OC)C(O)C(C)O2)C(C)C(OC2OC(C)CC(N(C)C)C2O)C(C)(OC)CC(C)C(=O)C(C)C(O)C1(C)O (stereo unspecified)
8.97 | CCCOC(=O)c1ccc(O)cc1
10.6 | CC12CCC3c4ccc(OS(=O)(=O)O)cc4CCC3C1CCC2=O (stereo unspecified)
7.54 | CCOC(=O)c1ccc(O)cc1
3.15 | COc1cc(Cc2cnc(N)nc2N)cc(OC)c1OC
8.84 | CCC1OC(=O)CC(O)C(C)C(OC2OC(C)C(OC3CC(C)(O)C(O)C(C)O3)C(N(C)C)C2O)C(CC=O)CC(C)C(=O)C=CC(C)=CC1COC1OC(C)C(O)C(OC)C1OC (stereo unspecified)
9.74 | COc1ccc2cc(C(C)C(=O)O)ccc2c1 (stereo unspecified)
3.44 | Cc1cc2c(s1)Nc1ccccc1N=C2N1CCN(C)CC1
5.92 | CC(=O)O[Si](CCCC(O)COC(=O)c1ccc(O)cc1)(OC(C)=O)c1ccccc1 (stereo unspecified)
7.1 | CCn1cc(C(=O)O)c(=O)c2ccc(C)nc21
2.96 | O=C1OCCN1N=Cc1ccc([N+](=O)[O-])o1
7.55 | COc1ccc2nc(S(=O)Cc3ncc(C)c(OC)c3C)[nH]c2c1 (stereo unspecified)
9.99 | CCC1OC(=O)C(C)C(OC2CC(C)(OC)C(O)C(C)O2)C(C)C(OC2OC(C)CC(N(C)C)C2O)C(C)(O)CC(C)C(=NOCOCCOC)C(C)C(O)C1(C)O (stereo unspecified)
9.99 | CC12CCC3c4ccc(O)cc4CCC3C1CCC2=O (stereo unspecified)
8.5 | CCC1OC(=O)C(C)C(OC2CC(C)(OC)C(O)C(C)O2)C(C)C(OC2OC(C)CC(N(C)C)C2O)C(C)(O)CC(C)C(=O)C(C)C(O)C1(C)O (stereo unspecified)
7.47 | CCOC(=O)C(CCc1ccccc1)NC(C)C(=O)N1CCCC1C(=O)O (stereo unspecified)
10.3 | CCC(=C(CC)c1ccc(O)cc1)c1ccc(O)cc1
11.1 | COc1ccc(C(=O)c2ccccc2)c(O)c1
11.5 | CC(=O)OC1(C(C)=O)CCC2C3C=C(C)C4=CC(=O)CCC4(C)C3CCC21C (stereo unspecified)
